BindingDB's records for doi:10.1021/acs.jmedchem.7b00441 (University of Bonn, 2017)

Key:
[1] = Inhibition of human GFP-fused ABCG2 expressed in MDCK2 cells assessed as potentiation of SN-38 induced cytotoxicity by measuring cell viability after 72 hrs by MTT assay
[2] = Inhibition of human GFP-fused ABCG2 expressed in MDCK2 cells assessed as potentiation of mitoxantrone induced cytotoxicity by measuring cell viability after 72 hrs by MTT assay

## O=[N+]([O-])c1ccc(Nc2nc(-c3cccnc3)nc3ccccc23)cc1
[1]
  EC50: 21 nM
[2]
  EC50: 13 nM

## N#Cc1cccc(Nc2nc(-c3cccnc3)nc3ccccc23)c1
[1]
  EC50: 85 nM

## Cc1cc(Nc2ccc(O)c([N+](=O)[O-])c2)nc(-c2ccccc2)n1
[1]
  EC50: 62 nM
[2]
  EC50: 22 nM
